This note sets out measurements from ChEMBL document CHEMBL3351883, “β-Agarofurans and Sesquiterpene Pyridine Alkaloids from Maytenus spinosa” (J Nat Prod, 2014).

Each structure is given as a SMILES string. Activity calls are given as the source filed them. No cut-off for these calls is given here.

Tested on in the first data set: not listed separately
The experiment in a line: Cytotoxicity against human C8166 cells assessed as cell viability by MTT assay. The settings on record: read-out: Activity. It counts as cell-based.
Consider `CC(=O)OC[C@]12[C@@H](OC(C)=O)[C@@H](OC(=O)c3ccccc3)[C@@H]3C[C@]1(OC3(C)C)[C@H](C)C[C@H](OC(C)=O)[C@@H]2OC(C)=O`, for which the viability is 96%.

The subject of the next data set is Human immunodeficiency virus 1. The experiment in a line: Antiviral activity against HIV1 infected in human C8166 cells after 72 hrs by p24 antigen based ELISA.
Conditions: not given
Format: functional.
On to `CC(=O)OC[C@]12[C@H](OC(C)=O)[C@@H](OC(C)=O)[C@@H]3[C@@H](O)[C@@]14O[C@@]3(C)COC(=O)c1cnccc1CCC(C)C(=O)O[C@@H]([C@H](OC(C)=O)[C@@H]2OC(C)=O)[C@]4(C)O` (stereo partly specified), for which the inhibition result is “inactive”.
With `CC(=O)OC[C@]12[C@H](OC(C)=O)[C@H](OC(=O)c3ccccc3)[C@@H]3[C@@H](OC(C)=O)[C@]1(OC3(C)C)[C@H](C)C[C@H](OC(C)=O)[C@@H]2OC(C)=O`, the inhibition result is “inactive”.
With `CC(=O)OC[C@]12[C@H](OC(C)=O)[C@H](OC(C)=O)[C@@H]3[C@@H](OC(C)=O)[C@@]14O[C@@]3(C)COC(=O)c1cccnc1CCC(C)C(=O)O[C@@H]([C@H](OC(C)=O)[C@@H]2OC(C)=O)[C@]4(C)O` (stereo partly specified), the inhibition result is “inactive”.
For `CC(=O)OC[C@]12[C@H](OC(C)=O)[C@@H](OC(C)=O)[C@@H]3[C@@H](OC(C)=O)[C@@]14O[C@@]3(C)COC(=O)c1cccnc1CCC(C)C(=O)O[C@@H]([C@H](OC(C)=O)[C@@H]2OC(C)=O)[C@]4(C)O` (stereo partly specified), the inhibition result was “inactive”.
`CC(=O)OC[C@]12[C@H](OC(C)=O)C(=O)[C@@H]3[C@@H](O)[C@@]14O[C@@]3(C)COC(=O)c1cnccc1CCC(C)C(=O)O[C@@H]([C@H](OC(C)=O)[C@@H]2OC(C)=O)[C@]4(C)O` (stereo partly specified): the inhibition result is “inactive”.
For the compound `CC(=O)OC[C@@]12[C@H](OC(C)=O)[C@H](OC(C)=O)[C@@H]3[C@@H](OC(=O)c4ccccc4)[C@@]14O[C@@]3(C)COC(=O)c1cccnc1CC[C@H](C)C(=O)O[C@@H]([C@H](OC(C)=O)[C@@H]2OC(C)=O)[C@]4(C)O`, the inhibition entry is “inactive”.
Turning to `CC(=O)OC[C@]12[C@H](OC(C)=O)[C@@H](OC(C)=O)[C@@H]3[C@@H](OC(=O)c4cccnc4)[C@@]14O[C@@]3(C)COC(=O)c1cnccc1CCC(C)C(=O)O[C@@H]([C@H](OC(C)=O)[C@@H]2OC(C)=O)[C@]4(C)O` (stereo partly specified), the inhibition entry was “inactive”.
In the case of `CCCCCCCCCCCC(=O)O[C@@H]1[C@H]2[C@H](OC(C)=O)[C@@H](OC(C)=O)[C@]3(COC(C)=O)[C@@H](OC(C)=O)[C@@H](OC(C)=O)[C@@H]4OC(=O)C(C)CCc5ccncc5C(=O)OC[C@]2(C)O[C@]13[C@@]4(C)O` (stereo partly specified), the inhibition result was “inactive”.
For the compound `CCC(C)C(=O)O[C@@H]1[C@H](OC(C)=O)[C@@H]2[C@@H](OC(C)=O)[C@]3(OC2(C)C)[C@H](C)C[C@H](OC(C)=O)[C@H](OC(=O)c2ccccc2)[C@@]13C` (stereo partly specified), the inhibition entry is “inactive”.
`CC(=O)O[C@@H]1[C@@H]2[C@@H](OC(C)=O)[C@]3(OC2(C)C)[C@H](C)C[C@H](O)[C@H](OC(C)=O)[C@@]3(C)[C@@H]1OC(=O)c1ccccc1`: the inhibition result is “inactive”.
Still for that read-out and setting: the result for `CC(=O)OC[C@]12[C@H](OC(C)=O)[C@H](OC(C)=O)[C@@H]3[C@@H](OC(C)=O)[C@@]14O[C@@]3(C)COC(=O)c1cnccc1CCC(C)C(=O)O[C@@H]([C@H](OC(C)=O)[C@@H]2OC(C)=O)[C@]4(C)O` (stereo partly specified) reads “inactive”.
For `CC(=O)O[C@@H]1[C@@H]2[C@@H](OC(C)=O)[C@]3(OC2(C)C)[C@H](C)C[C@H](OC(C)=O)[C@H](OC(=O)c2ccccc2)[C@@]3(C)[C@@H]1OC(C)=O`, the inhibition entry is “inactive”.
Take `CC(=O)OC[C@]12[C@H](OC(C)=O)[C@@H](OC(C)=O)[C@@H]3C(=O)[C@@]14O[C@@]3(C)COC(=O)c1cnccc1CCC(C)C(=O)O[C@@H]([C@H](OC(C)=O)[C@@H]2OC(C)=O)[C@]4(C)O` (stereo partly specified): the inhibition result was “inactive”.
As to `CC(=O)O[C@@H]1[C@H]2[C@@H](OC(=O)c3ccccc3)[C@@H](OC(=O)c3ccccc3)[C@]3(C)[C@@H](OC(C)=O)[C@@H](OC(=O)c4ccccc4)C[C@@H](C)[C@@]13OC2(C)C`, the inhibition entry is “inactive”.
With `CC(=O)OC[C@]12[C@H](OC(C)=O)[C@@H](O)[C@@H]3[C@@H](O)[C@@]14O[C@@]3(C)COC(=O)c1cnccc1CCC(C)C(=O)O[C@@H]([C@H](OC(C)=O)[C@@H]2OC(C)=O)[C@]4(C)O` (stereo partly specified), the inhibition entry is “inactive”.
Consider `CC(=O)OC[C@]12[C@H](OC(C)=O)C(=O)[C@@H]3[C@@H](OC(C)=O)[C@@]14O[C@@]3(C)COC(=O)c1ncccc1C[C@H](C)[C@H](C)C(=O)O[C@H]([C@@H](OC(C)=O)[C@@H]2OC(C)=O)[C@H]4C`, for which the inhibition result is “inactive”.
On to `CC(=O)OC[C@]12[C@H](OC(C)=O)[C@@H](OC(C)=O)[C@@H]3[C@@H](OC(=O)c4ccc(Br)cc4)[C@@]14O[C@@]3(C)COC(=O)c1cnccc1CCC(C)C(=O)O[C@@H]([C@H](OC(C)=O)[C@@H]2OC(C)=O)[C@]4(C)O` (stereo partly specified), for which the inhibition result is “inactive”.
Same read-out and setting: the result for `CC(=O)O[C@@H]1[C@H]2[C@@H](OC(=O)c3ccccc3)[C@@H](OC(=O)c3ccccc3)[C@]3(C)[C@@H](OC(C)=O)[C@@H](O)C[C@@H](C)[C@@]13OC2(C)C` reads “inactive”.
As to `CCC(C)C(=O)O[C@@H]1[C@@H]2[C@@H](OC(C)=O)[C@]3(OC2(C)C)[C@H](C)C[C@H](O)[C@H](OC(C)=O)[C@@]3(COC(C)=O)[C@@H]1OC(=O)c1ccccc1` (stereo partly specified), the inhibition result was “inactive”.
Same read-out and setting: the entry for `CC(=O)OC[C@]12[C@H](OC(=O)c3ccccc3)[C@H](OC(=O)c3ccccc3)[C@@H]3[C@@H](OC(C)=O)[C@]1(OC3(C)C)[C@H](C)C[C@H](O)[C@@H]2OC(C)=O` is “inactive”; for `CC(=O)OC[C@]12[C@H](OC(C)=O)[C@@H](OC(C)=O)[C@@H]3[C@@H](OC(=O)N(C)C)[C@@]14O[C@@]3(C)COC(=O)c1cnccc1CCC(C)C(=O)O[C@@H]([C@H](OC(C)=O)[C@@H]2OC(C)=O)[C@]4(C)O` (stereo partly specified) it is “inactive”; for `CC(=O)OC[C@]12[C@H](OC(C)=O)[C@@H](OC(C)=O)[C@@H]3[C@@H](OC(=O)c4ccco4)[C@@]14O[C@@]3(C)COC(=O)c1cnccc1CCC(C)C(=O)O[C@@H]([C@H](OC(C)=O)[C@@H]2OC(C)=O)[C@]4(C)O` (stereo partly specified) it is “inactive”.
On to `CC(=O)OC[C@]12[C@H](OC(C)=O)[C@@H](OC(C)=O)[C@@H]3[C@@H](OC(C)=O)[C@@]14O[C@@]3(C)COC(=O)c1cnccc1CCC(C)C(=O)O[C@@H]([C@H](OC(C)=O)[C@@H]2OC(C)=O)[C@]4(C)O` (stereo partly specified), for which the inhibition entry is “inactive”.
For the compound `CC(=O)OC[C@]12[C@@H](OC(C)=O)[C@@H](OC(=O)c3ccccc3)[C@@H]3C[C@]1(OC3(C)C)[C@H](C)C[C@H](OC(C)=O)[C@@H]2OC(C)=O`, the “inhibition (INH)” value was 64.4%.
Turning to `CC(=O)OC[C@]12[C@H](OC(=O)c3ccccc3)[C@@H](OC(C)=O)[C@@H]3[C@@H](OC(C)=O)[C@]1(OC3(C)C)[C@H](C)C[C@H](O)[C@@H]2OC(C)=O`, the inhibition entry is “inactive”.
